Values of other authors as cited in patent US20210386111A1, “AEROSOLISABLE FORMULATION” (NICOVENTURES TRADING LIMITED, priority 2018, published 2021).

Substance: 2-hydroxy-propyl-β-cyclodextrin
- solubility in water compared to base cyclodextrins such as β-cyclodextrin: increased solubility in water
